# Laboratory results taken from patent US20250282770A1, “BIOLUMINESCENT PROBES TO TRACK STEM CELLS IN VIVO” (THE BOARD OF TRUSTEES OF THE UNIVERSITY OF ILLINOIS, priority 2024, published 2025).
# Key:
# [1] = Stability in PBS or serum-containing media; format: physicochemical
# ALDH1A1 = molecular target: T1, ALDH1A1 (Mus musculus, UniProt P24549); test: Validation of ALDH-mediated activation of AlDeLuc in heterotopic breast cancer model via DEAB inhibition; format: in vivo, BALB/c mice; design: from tissue; host or cells: 4T1-Luc tumours in BALB/c mice; conditions: AlDeLuc alone 0.55 mg/kg; 40 min after injection
# T1 sequence (P24549 1-501): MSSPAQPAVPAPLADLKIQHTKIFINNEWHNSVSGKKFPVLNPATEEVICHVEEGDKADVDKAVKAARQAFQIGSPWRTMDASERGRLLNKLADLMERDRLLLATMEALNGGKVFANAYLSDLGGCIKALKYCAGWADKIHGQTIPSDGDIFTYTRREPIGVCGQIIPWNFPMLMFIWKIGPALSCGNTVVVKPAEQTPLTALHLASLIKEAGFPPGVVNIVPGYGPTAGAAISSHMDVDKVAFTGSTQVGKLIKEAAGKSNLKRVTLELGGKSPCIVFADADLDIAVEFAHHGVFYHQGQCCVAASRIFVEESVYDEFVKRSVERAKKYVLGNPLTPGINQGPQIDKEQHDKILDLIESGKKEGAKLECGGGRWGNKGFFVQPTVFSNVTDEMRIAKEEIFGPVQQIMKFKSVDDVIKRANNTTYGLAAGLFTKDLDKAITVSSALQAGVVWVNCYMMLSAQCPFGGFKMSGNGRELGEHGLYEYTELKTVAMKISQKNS
# Procedure: Validation of ALDH-mediated Activation of AlDeLuc in a Heterotopic Breast Cancer Model via DEAB Inhibition. BALB/c mice bearing 4T1-Luc tumors were anesthetized using isoflurane (1-3% for maintenance; up to 5% for induction) in oxygen from a precision vaporizer. After testing to ensure animals are fully under anesthesia, each mouse was administered AlDeLuc via retro-orbital injection (0.55 mg/kg, 1:19 v/v DMSO:PBS). Images were captured using the IVIS imaging system 40 minutes after injection. Bioluminescence light was captured in open mode (no filters were applied). ROIs were drawn around each tumor and summed for each animal. The signal intensity was quantified using the Living Image Analysis Software. After two days, the same animals were anesthetized and co-administered a solution of AlDeLuc and DEAB (0.55 mg/kg and 93 mg/kg respectively, 1:19 v/v DMSO:PBS). After the allotted 40 minutes, the images were captured using the IVIS imaging system. Bioluminescence was collected in open mode (no filters were applied). ROIS were drawn around each tumor and summed for each animal. The signal intensity was quantified using the Living Image Analysis Software.
# rat liver microsomes = test: Stability of AlDeLuc to rat liver microsomes; format: in vitro ADME; conditions: 2 μM; RLM 0.25 to 5.0 ng/mL; NADPH; 37° C.
# Procedure: Investigating the Stability of AlDeLuc to Rat Liver Microsomes. The stability of AlDeLuc (2 μM) in rat liver microsomes (RLM) was measured in a black 96-well plate and was monitored using the IVIS imaging system. To Eppendorf tubes containing potassium phosphate buffer (0.1 M, pH 7.4), RLM (0.25 ng/mL or 5 ng/mL), and AlDeLuc (2 μM) was added NADPH (50 μM in potassium phosphate buffer) and incubated at 37° C. for 15 minutes. In parallel, Eppendorf tubes with potassium phosphate buffer (0.1 M, pH 7.4), ALDH1A1 (0.4 μM), NAD^+ (1 mM), and AlDeLuc (2 μM, activated with acid) were warmed at 37° C. for 15 minutes. The solutions were transported to the laboratory housing the IVIS imaging system (˜10 minutes), transferred to a 96-well plate, and immediately administered ATP-MgSO4 (45 μL, prepared by mixing 17.78 mM ATP-Mg and 35.56 mM MgSO4 in a 1:1 ratio in PBS buffer) and luciferase (5 μL, 1 mg/mL in PBS containing 10% glycerol) to initiate bioluminescence production. Light was collected immediately after mixing, and the total luminescent counts were collected in each condition. The total volume of each well was 200 μL with 0.2% DMSO. All data reported as the mean±standard deviation (n=4).
compound,measurement,setting,value
"CCN(CC)c1ccc2nc(C3=N[C@@H](C(OC)OC)CS3)sc2c1 [AlDeLuc, (S)-2-(4-(dimethoxymethyl)-4,5-dihydrothiazol-2-yl)-N,N-diethylbenzo[d]thiazol-6-amine]",hydrolysis,[1]; PBS,does not hydrolyze
same,hydrolysis,[1]; serum-containing media,does not hydrolyze
same,total luminescent counts,ALDH1A1,2.18±0.60×10^4
same,bioluminescence after incubation with rat liver microsomes,rat liver microsomes,negligible bioluminescence
